Where “and” joins values, the source holds several entries; their conditions need not be identical. Equal values may be shown once.

For the experiment, the target named is Nicotinic acetylcholine receptor (Rattus leucopus, UniProt Q62594).
Nicotinic acetylcholine receptor, sequence (Q62594 whole entry): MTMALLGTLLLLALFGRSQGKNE
With `CN1[C@@H]2CC[C@H]1CC(OC(=O)[C@H](CO)c1ccccc1)C2` (stereo partly drawn) [CAS_51-55-8], the Ki was over 10 µM.

`COc1cc2c3cc1Oc1cc(ccc1O)CC1c4c(cc(OC)c(O)c4Oc4ccc(cc4)CC3[N+](C)(C)CC2)CC[N+]1(C)C` (stereo not drawn) [CAS_8063-06-7]: the Ki is 4.5 µM and 2.03 µM.

For `C[N+](C)(C)CCCCCC[N+](C)(C)C` [Hexamethoniumdibromide], the Ki was over 10 µM.

In general, Ki refers to the equilibrium dissociation constant of an inhibitor or competing ligand from its target. High values mean a looser hold on the target, low ones a stronger hold on the target.

Source of the values: BindingDB's records for PubMed 7651361 (Georgetown University, 1995).
